Laboratory results: paper PMC11740144 (ACS Omega, 2024)

Tests used:
[1] = system: SARS-CoV-2 delta virus (NTU92); assay: Plaque reduction assay, entry treatment (compound preincubated with the virus); assay type: cell-based; settings: Severe acute respiratory syndrome coronavirus 2, Vero C1008, VeroE6 cells, triplicate, read-out: EC50 against delta SARS-CoV-2 infecting VeroE6 cells
[2] = Cytotoxicity by acid phosphatase assay; assay type: cell-based; settings: African green monkey; VeroE6 cells, 3 days incubation
Experimental: Cytotoxicity of the inhibitors was determined by using acid phosphatase assay. Briefly, VeroE6 cells were seeded onto a 96-well culture plate at a concentration of 2 × 10^4 cells per well. Next day, the medium was removed, and each well was washed once with PBS before adding DMEM containing 2% FBS and different concentrations of an inhibitor. Next, DMEM containing 2 μg/mL TPCK-trypsin was added. After 1 h of incubation at 37 °C, the medium was removed, and cells were washed by PBS. Then, DMEM containing 2% FBS and different concentrations of an antiviral was added. After 3 days of incubation at 37 °C, the medium was removed, and each well was washed once with PBS. Next, buffer containing 0.1 M sodium acetate (pH = 5.0), 0.1% Triton X-100, and 5 mM p-nitrophenyl phosphate was added. After the mixture was incubated at 37 °C for 2 h, 1 N NaOH was added to stop the reaction. The absorbance was then determined by an ELISA reader (VERSAmax, Molecular Devices, Sunnyvale, CA) at a wavelength of 405 nm. The percentage of cytotoxicity was calculated using the following formula: cytotoxicity % = [1 – (At/As) × 100]%, where At and As refer to the absorbance of a tested substance and solvent control, respectively. The 50% cytotoxicity concentration (CC50) was defined as the concentration reducing 50% of cell viability. […]

RBD:ACE2 interaction = RBD:ACE2 interaction (Severe acute respiratory syndrome coronavirus 2, UniProt P0DTC2); assay: RBD:ACE2 interaction inhibition, NanoBiT kit (Promega); design: species or system delta SARS-CoV-2 RBD / human ACE2; settings: RBD from delta SARS-CoV-2, triplicate; read-out: IC50 of RBD:ACE2 binding inhibition
Furin = Furin (Homo sapiens, UniProt P09958); assay: Inhibition of human protease Furin (data not shown); assay type: biochemical
TMPRSS2 = TMPRSS2 (Homo sapiens, UniProt O15393); assay: Inhibition of human protease TMPRSS2 (data not shown); assay type: biochemical
Cathepsin L = Cathepsin L (Homo sapiens, UniProt P07711); assay: Inhibition of human protease Cathepsin L (data not shown); assay type: biochemical
SARS-CoV-2 [3] = assay type: cell-based
SARS-CoV-2 [4] = settings: VeroE6 host cells; read-out: EC50 of inhibiting SARS-CoV-2 entry into VeroE6 host cells; cited from earlier work
VeroE6 host cells = settings: cited from earlier work

Sequence of Furin (P09958 108-794): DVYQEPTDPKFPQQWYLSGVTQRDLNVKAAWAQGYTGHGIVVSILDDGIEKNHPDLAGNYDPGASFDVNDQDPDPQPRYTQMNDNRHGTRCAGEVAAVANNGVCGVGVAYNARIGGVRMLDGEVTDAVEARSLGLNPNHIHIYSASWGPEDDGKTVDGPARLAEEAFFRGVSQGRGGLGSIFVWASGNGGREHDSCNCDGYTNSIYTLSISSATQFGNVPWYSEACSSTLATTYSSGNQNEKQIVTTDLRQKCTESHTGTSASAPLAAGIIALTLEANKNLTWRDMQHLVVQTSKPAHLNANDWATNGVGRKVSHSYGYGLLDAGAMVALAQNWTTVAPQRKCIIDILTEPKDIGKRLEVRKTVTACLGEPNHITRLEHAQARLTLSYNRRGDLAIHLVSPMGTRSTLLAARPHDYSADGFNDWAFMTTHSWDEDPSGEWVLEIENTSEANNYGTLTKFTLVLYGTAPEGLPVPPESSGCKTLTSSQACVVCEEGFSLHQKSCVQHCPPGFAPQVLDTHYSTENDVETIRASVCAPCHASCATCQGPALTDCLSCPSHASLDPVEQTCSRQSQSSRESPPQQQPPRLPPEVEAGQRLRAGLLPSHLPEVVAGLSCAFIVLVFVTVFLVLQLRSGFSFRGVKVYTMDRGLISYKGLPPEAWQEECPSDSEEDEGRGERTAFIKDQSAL
Sequence of TMPRSS2 (O15393 whole entry): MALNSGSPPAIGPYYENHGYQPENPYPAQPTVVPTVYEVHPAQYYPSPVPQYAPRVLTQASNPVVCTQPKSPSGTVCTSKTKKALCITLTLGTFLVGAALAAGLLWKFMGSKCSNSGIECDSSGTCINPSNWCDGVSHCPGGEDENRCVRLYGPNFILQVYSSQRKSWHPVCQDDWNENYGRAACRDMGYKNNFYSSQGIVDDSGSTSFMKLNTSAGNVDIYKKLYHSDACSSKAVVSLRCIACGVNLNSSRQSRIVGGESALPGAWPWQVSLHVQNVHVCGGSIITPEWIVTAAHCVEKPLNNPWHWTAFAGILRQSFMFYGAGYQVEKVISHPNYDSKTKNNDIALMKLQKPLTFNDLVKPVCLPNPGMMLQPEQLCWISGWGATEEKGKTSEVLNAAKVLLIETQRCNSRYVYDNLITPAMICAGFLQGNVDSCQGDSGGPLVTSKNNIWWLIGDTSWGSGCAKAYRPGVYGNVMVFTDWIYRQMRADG
Sequence of Cathepsin L (P07711 114-333): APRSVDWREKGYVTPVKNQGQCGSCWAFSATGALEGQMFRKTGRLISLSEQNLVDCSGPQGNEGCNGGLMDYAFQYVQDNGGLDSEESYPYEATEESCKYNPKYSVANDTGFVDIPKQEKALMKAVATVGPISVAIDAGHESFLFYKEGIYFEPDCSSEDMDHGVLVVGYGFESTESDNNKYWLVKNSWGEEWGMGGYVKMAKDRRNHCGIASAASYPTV

Row | Molecule | EC50 [1] [µM] | CC50 at 3 days [2] [µM] | IC50 (RBD:ACE2 interaction) [µM] | inhibition of Furin (Furin) | inhibition of TMPRSS2 (TMPRSS2) | inhibition of Cathepsin L (Cathepsin L) | anti-SARS-CoV-2 activity under the postentry treatment (SARS-CoV-2 [3]) | EC50 (SARS-CoV-2 [4]) [µM] | CC50 (VeroE6 host cells) [µM]
1 | O=C(c1ccccc1)[C@H]1[C@@H]2c3ccccc3C=CN2[C@@H](C(=O)c2ccccc2)[C@@H]2c3ccccc3C=CN12 [Compound 50] | 26.5 ± 6.9 | > 100 | 32.7 ± 8.9 | no inhibition | no inhibition | no inhibition | not under the postentry treatment | – | –
2 | berbamine hydrochloride | – | – | – | – | – | – | – | 1.73 | 66.9
3 | O=C(c1ccc(Cl)cc1)[C@H]1[C@@H]2c3ccccc3C=CN2[C@@H](C(=O)c2ccc(Cl)cc2)[C@@H]2c3ccccc3C=CN12 [Compound 96] | 17 ± 3.7 | > 100 | 10.4 ± 2.1 | no inhibition | no inhibition | no inhibition | not under the postentry treatment | – | –
